Measured values taken from publication PMC10387993, “New pyrimidine-N-β-D-glucosides: synthesis, biological evaluation, and molecular docking investigations” (Turkish Journal of Chemistry, 2023).
In brackets after ≈: the same amount, converted by molar mass. Like-named read-outs stand apart in the source and are kept apart here.

Tests used:
Type in all cases: cell-based
MCF7 = test: cells; details: Homo sapiens; for LC50 (concentration causing 50% net cell loss relative to time zero): MCF7, read-out: LC50; for GI50 / IC50 / IC (total growth inhibition): MCF7, MTT; for IC50: read-out: IC50; for IC (total growth inhibition): read-out: TGI
Method: (§1) The cell lines were cultured in a cell medium (Dulbecco’s modified eagle’s or RPMI 1640) enriched with 10% (v/v) fetal bovine serum and 2% (v/v) Penicillin-Streptomycin (10,000 U/mL). First, old medium was removed out of the flask when the cells reached approximately 80% confluence. Next, cells were taken from the flasks surface using trypsin-EDTA solution and then subjected to centrifugation. Following, the cell pellet was suspended with fresh media and was inoculated into wells.
(§2) A cell suspension containing approximately 1 × 10^4 cells in 100 μL was seeded into the wells of 96-well culture plates. […]. The final volume of the wells was set to 200 μL by medium. Cell proliferation assay was evaluated by MTT (yellow tetrazolium MTT (3-(4,5-dimethylthiazolyl-2)-2,5-diphenyltetrazolium bromide) methods. Briefly, an MTT stock solution (5 mg of MTT/mL of distilled water) was filtered and kept at −20 °C until use. The cells were exposed to an MTT reagent (consisting of one parts of MTT stock solutions and nine parts of fresh RPMI 1640 without phenol red) for 4 h to form MTT formazan dye followed by the dye dissolved in DMSO with Sorenson’s buffer for 30 min at room temperature and then the plate was measured at 560 nm, with 690 nm as a reference interval, using a microplate reader. Each experiment was repeated at least three times for each cell line.
(§3) IC50 value is a concentration that inhibits half of the cells in vitro. The half maximal inhibitory concentration (IC50) of the test and control compounds was calculated using XLfit5 or excel spreadsheet and represent in μM at 95% confidence intervals. The proliferation assay results were expressed as the percent inhibition according to the following formula: % Inhibition = [1 - (Absorbance of Treatments /Absorbance of DMSO) × 100]. Three dose response parameters (GI50, TGI, LC50) were calculated according to the following formulas using the absorbance measurements of time zero (Tz), control growth (C), and test growth in the presence of drug (Ti). Growth inhibition of 50% (GI50) was calculated from [(Ti-Tz)/(C-Tz)] × 100 = 50, which is the drug concentration resulting in a 50% reduction in the net growth increase in control cells during the drug incubation. The drug concentration resulting in total growth inhibition (TGI) was calculated from Ti = Tz. The LC50 indicating a net loss of cells following treatment was calculated from [(Ti-Tz)/Tz] × 100 = −50.

C6 (Rat brain glioma) = test: cells; details: Rattus norvegicus; for LC50 (concentration giving 50% net cell loss relative to time zero): read-out: LC50; for GI50 / IC50 / IC (total growth inhibition): C6, MTT; for IC50: read-out: IC50; for IC (total growth inhibition): read-out: TGI
Method: as §1, §2, §3

HeLa = test: cells; details: Homo sapiens; for GI50 / IC50 / IC (total growth inhibition): MTT; for IC50: read-out: IC50; for IC (total growth inhibition): read-out: TGI; for LC50 (concentration causing 50% net cell loss): read-out: LC50
Method: as §1, §2, §3

A549 = test: cells; details: Homo sapiens; for LC50 (concentration causing 50% net cell loss): A549, read-out: LC50; for GI50 / IC50 / IC (total growth inhibition): A549, MTT; for IC50: read-out: IC50; for IC (total growth inhibition): read-out: TGI
Method: as §1, §2, §3

HT29 = test: cells; details: Homo sapiens; for LC50 (concentration giving 50% net cell loss relative to time zero): HT-29, read-out: LC50; for GI50 / IC50 / IC (total growth inhibition): HT-29, HT29, MTT; for IC50: read-out: IC50; for IC (total growth inhibition): read-out: TGI
Method: as §1, §2, §3

Hep3B = test: cells; details: Homo sapiens; for GI50 / IC50 / IC (total growth inhibition): MTT; for IC50: read-out: IC50; for IC (total growth inhibition): read-out: TGI; for LC50 (concentration causing 50% net cell loss relative to time zero): read-out: LC50
Method: as §1, §2, §3

normal FL cells = test: cells; details: for GI50 / IC50 / IC (total growth inhibition): FL normal cells, MTT; for IC50: read-out: IC50; for IC (total growth inhibition): read-out: TGI
Method: as §1, §2, §3

S. gordonii NCTC 7870 = test: Microdilution MIC assay; details: Streptococcus gordonii, NCTC7870; S. gordonii NCTC 7870, 24 h at 35 °C
Method: (§4) MIC values of the compounds against bacterial strains were determined on the basis of a microwell dilution method. […] […]. Growth of microorganisms was determined visually after incubation for 24 h at 35 °C. The lowest concentration at which there was no visible growth (turbidity) was taken as the MIC.

E. coli ESBL ATCC 35218 = test: Microdilution MIC assay; details: Escherichia coli, ATCC35218; E. coli ESBL ATCC 35218, 24 h at 35 °C
Method: as §4

[1] = tested on: S. aureus MSSA ATCC 29213; test: Microdilution MIC assay; details: S. aureus MSSA ATCC 29213, 24 h at 35 °C
Method: as §4

[2] = tested on: P. aeruginosa AGME ATCC 27853; test: Microdilution MIC assay; details: Pseudomonas aeruginosa, ATCC27853; P. aeruginosa AGME ATCC 27853, 24 h at 35 °C
Method: as §4

S. mutans ATCC 35668 = test: Microdilution MIC assay; details: S. mutans ATCC 35668, 24 h at 35 °C
Method: as §4

[3] = tested on: S. aureus MRSA ATCC 46300; test: Microdilution MIC assay; details: Staphylococcus aureus; S. aureus MRSA ATCC 46300, 24 h at 35 °C; read-out: MIC
Method: as §4

[4] = tested on: A. actinomycetemcomitans ATCC 33384; test: Microdilution MIC assay; details: Aggregatibacter actinomycetemcomitans, ATCC33384; A. actinomycetemcomitans ATCC 33384, 24 h at 35 °C
Method: as §4

[5] = tested on: E. faecalis VRE ATCC 19433; test: Microdilution MIC assay; details: Enterococcus faecalis; E. faecalis VRE ATCC 19433, 24 h at 35 °C
Method: as §4

S. aureus ATCC 25923 = test: Microdilution MIC assay; details: Staphylococcus aureus, ATCC25923, 24 h, S. aureus ATCC 25923, 24 h at 35 °C; read-out: MIC
Method: as §4

E. coli ATCC 25922 = test: Microdilution MIC assay; details: Escherichia coli, ATCC25922; E. coli ATCC 25922, 24 h at 35 °C
Method: as §4

[6] = Staphylococcus aureus, 24 h, read-out: MIC
[7] = Streptococcus mutans, ATCC35668, 24 h, read-out: MIC

Structure (SMILES): CC(=O)OC[C@H]1O[C@@H](Nc2nc(-c3ccc(C)cc3)cc(-c3cccnc3)n2)[C@H](OC(C)=O)[C@@H](OC(C)=O)[C@@H]1OC(C)=O [Compound 17, 2,3,4,6-tetra-O-acetyl-N-[4-(4-methylphenyl)-6-pyridin-3-ylpyrimidin-2-yl]-β-D-glucopyranosylamine]
- LC50 (concentration causing 50% net cell loss relative to time zero) (MCF7): > 500 µg/mL
- GI50 (MCF7): 2.19 µg/mL (≈ 3.7 µM)
- IC50 (MCF7): > 500 µg/mL
- IC (total growth inhibition) (MCF7): > 500 µg/mL
- LC50 (concentration giving 50% net cell loss relative to time zero) (C6 (Rat brain glioma)): > 500 µg/mL
- GI50 (C6 (Rat brain glioma)): > 500 µg/mL
- IC50 (C6 (Rat brain glioma)): > 500 µg/mL
- IC (total growth inhibition) (C6 (Rat brain glioma)): > 500 µg/mL
- GI50 (HeLa): > 500 µg/mL
- IC50 (HeLa): > 500 µg/mL
- IC (total growth inhibition) (HeLa): > 500 µg/mL
- LC50 (concentration causing 50% net cell loss) (HeLa): > 500 µg/mL
- LC50 (concentration causing 50% net cell loss) (A549): > 500 µg/mL
- GI50 (A549): 7.85 µg/mL (≈ 13.2 µM)
- IC50 (A549): > 500 µg/mL
- IC (total growth inhibition) (A549): > 500 µg/mL
- LC50 (concentration giving 50% net cell loss relative to time zero) (HT29): > 500 µg/mL
- GI50 (HT29): 3.09 µg/mL (≈ 5.21 µM)
- IC50 (HT29): > 500 µg/mL
- IC (total growth inhibition) (HT29): > 500 µg/mL
- GI50 (Hep3B): 3.86 µg/mL (≈ 6.51 µM)
- IC50 (Hep3B): > 500 µg/mL
- IC (total growth inhibition) (Hep3B): > 500 µg/mL
- LC50 (concentration causing 50% net cell loss relative to time zero) (Hep3B): > 500 µg/mL
- GI50 (normal FL cells): 17.2 µg/mL (≈ 29 µM)
- IC50 (normal FL cells): > 500 µg/mL
- IC (total growth inhibition) (normal FL cells): > 500 µg/mL
- MIC (S. gordonii NCTC 7870): > 1000 µg/mL
- MIC (E. coli ESBL ATCC 35218): > 1000 µg/mL
- MIC [1]: 125 µg/mL (≈ 211 µM)
- MIC [1, 6]: 62.5 to 125 µg/mL (≈ 105 to 211 µM)
- MIC [2]: > 1000 µg/mL
- MIC (S. mutans ATCC 35668): 125 µg/mL (≈ 211 µM)
- MIC (S. mutans ATCC 35668; [7]): 62.5 to 125 µg/mL (≈ 105 to 211 µM)
- MIC [3]: 1000 µg/mL (≈ 1690 µM)
- MIC [4]: > 1000 µg/mL
- MIC [5]: 1000 µg/mL (≈ 1690 µM)
- MIC (S. aureus ATCC 25923): > 1000 µg/mL
- MIC (E. coli ATCC 25922): > 1000 µg/mL

Structure (SMILES): CC(=O)OC[C@H]1O[C@@H](Nc2nc(-c3ccncc3)cc(-c3ccc(C)cc3)n2)[C@H](OC(C)=O)[C@@H](OC(C)=O)[C@@H]1OC(C)=O [Compound 18, 2,3,4,6-tetra-O-acetyl-N-[4-(4-methylphenyl)-6-pyridin-4-ylpyrimidin-2-yl]-β-D-glucopyranosylamine]
- LC50 (concentration causing 50% net cell loss relative to time zero) (MCF7): > 500 µg/mL
- GI50 (MCF7): 1.79 µg/mL (≈ 3.02 µM)
- IC50 (MCF7): > 500 µg/mL
- IC (total growth inhibition) (MCF7): > 500 µg/mL
- LC50 (concentration giving 50% net cell loss relative to time zero) (C6 (Rat brain glioma)): 29.8 µg/mL (≈ 50.2 µM)
- GI50 (C6 (Rat brain glioma)): 2.23 µg/mL (≈ 3.76 µM)
- IC50 (C6 (Rat brain glioma)): 30.1 µg/mL (≈ 50.9 µM)
- IC (total growth inhibition) (C6 (Rat brain glioma)): 5.21 µg/mL
- GI50 (HeLa): 1.03 µg/mL (≈ 1.74 µM)
- IC50 (HeLa): 2.29 µg/mL (≈ 3.86 µM)
- IC (total growth inhibition) (HeLa): 1.29 µg/mL
- LC50 (concentration causing 50% net cell loss) (HeLa): 7.4 µg/mL (≈ 12.5 µM)
- LC50 (concentration causing 50% net cell loss) (A549): > 500 µg/mL
- GI50 (A549): 15.5 µg/mL (≈ 26.2 µM)
- IC50 (A549): > 500 µg/mL
- IC (total growth inhibition) (A549): > 500 µg/mL
- LC50 (concentration giving 50% net cell loss relative to time zero) (HT29): > 500 µg/mL
- GI50 (HT29): 7.77 µg/mL (≈ 13.1 µM)
- IC50 (HT29): > 500 µg/mL
- IC (total growth inhibition) (HT29): > 500 µg/mL
- GI50 (Hep3B): 6.15 µg/mL (≈ 10.4 µM)
- IC50 (Hep3B): > 500 µg/mL
- IC (total growth inhibition) (Hep3B): > 500 µg/mL
- LC50 (concentration causing 50% net cell loss relative to time zero) (Hep3B): > 500 µg/mL
- GI50 (normal FL cells): 2.01 µg/mL (≈ 3.39 µM)
- IC50 (normal FL cells): 7.46 µg/mL (≈ 12.6 µM)
- IC (total growth inhibition) (normal FL cells): 7.58 µg/mL
- LC50 (normal FL cells; human): 352.27 µg/mL (≈ 594 µM)
- MIC (S. gordonii NCTC 7870): > 1000 µg/mL
- MIC (E. coli ESBL ATCC 35218): > 1000 µg/mL
- MIC [1, 6]: 1000 µg/mL (≈ 1690 µM)
- MIC [2]: > 1000 µg/mL
- MIC (S. mutans ATCC 35668): 125 µg/mL (≈ 211 µM)
- MIC (S. mutans ATCC 35668; [7]): 62.5 to 125 µg/mL (≈ 105 to 211 µM)
- MIC [3]: 500 µg/mL (≈ 844 µM)
- MIC [4]: > 1000 µg/mL
- MIC [5]: 1000 µg/mL (≈ 1690 µM)
- MIC (S. aureus ATCC 25923): 500 µg/mL (≈ 844 µM)
- MIC (E. coli ATCC 25922): > 1000 µg/mL
